Legend:
Type in all cases: in vivo
[1] = tested on: barnyardgrass (Echinochloa crus-galli); experiment: Test A preemergence, barnyardgrass; conditions: Preemergence; for Plant response rating, Barnyardgrass: 0 to 100 scale (0 no effect, 100 complete control); for Barnyardgrass plant response rating: 125 g ai/ha, visual injury on 0 to 100 scale (0 no effect, 100 complete control), approximately 10 days
Outline: (§1)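 Pots: loam soil/sand blend. Pre: directed soil spray at planting. Post: plants 2–10 cm, 1–2 leaf stage. Formulation: non-phytotoxic solvent + surfactant.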

kochia (Bassia scoparia) [2] = experiment: Test A preemergence, kochia; conditions: Preemergence; for Plant response rating, Kochia: 0 to 100 scale (0 no effect, 100 complete control); for Kochia plant response rating: 125 g ai/ha, visual injury on 0 to 100 scale (0 no effect, 100 complete control), approximately 10 days
Outline: as §1

[3] = tested on: Ryegrass, Italian (Italian ryegrass, Lolium multiflorum); experiment: Test A preemergence, Ryegrass, Italian; conditions: Preemergence; for Plant response rating, Ryegrass, Italian: 0 to 100 scale (0 no effect, 100 complete control); for Ryegrass, Italian plant response rating: 125 g ai/ha, visual injury on 0 to 100 scale (0 no effect, 100 complete control), approximately 10 days
Outline: as §1

[4] = tested on: Foxtail, Giant (giant foxtail, Setaria faberi); experiment: Test A preemergence, Foxtail, Giant; conditions: Preemergence; for Plant response rating, Foxtail, Giant: 0 to 100 scale (0 no effect, 100 complete control); for Foxtail, Giant plant response rating: 125 g ai/ha, visual injury on 0 to 100 scale (0 no effect, 100 complete control), approximately 10 days
Outline: as §1

[5] = tested on: pigweed (Amaranthus retroflexus); experiment: Test A preemergence, pigweed; conditions: for Plant response rating, Pigweed: 0 to 100 scale (0 no effect, 100 complete control); for Pigweed plant response rating: 125 g ai/ha, visual injury on 0 to 100 scale (0 no effect, 100 complete control), approximately 10 days
Outline: (§2)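 Preemergence: seeded pots of loam plus sand received a directed soil spray. Postemergence: seedlings at one to two leaves, 2 to 10 cm high, were oversprayed. Each compound was formulated in a non-phytotoxic solvent mix that included a surfactant.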

[6] = tested on: barnyardgrass (Echinochloa crus-galli); experiment: Test A postemergence, barnyardgrass; conditions: Postemergence, 0 to 100 scale (0 no effect, 100 complete control)
Outline: as §2

kochia (Bassia scoparia) [7] = experiment: Test A postemergence, kochia; conditions: Postemergence, 0 to 100 scale (0 no effect, 100 complete control)
Outline: as §1

[8] = tested on: ragweed (common ragweed, Ambrosia artemisiifolia); experiment: Test A postemergence, ragweed; conditions: Postemergence, 0 to 100 scale (0 no effect, 100 complete control)
Outline: as §1

[9] = tested on: Ryegrass, Italian (Italian ryegrass, Lolium multiflorum); experiment: Test A postemergence, Ryegrass, Italian; conditions: Postemergence, 0 to 100 scale (0 no effect, 100 complete control)
Outline: as §1

[10] = tested on: Foxtail, Giant (giant foxtail, Setaria faberi); experiment: Test A postemergence, Foxtail, Giant; conditions: Postemergence, 0 to 100 scale (0 no effect, 100 complete control)
Outline: as §1

[11] = tested on: pigweed (Amaranthus retroflexus); experiment: Test A postemergence, pigweed; conditions: Postemergence, 0 to 100 scale (0 no effect, 100 complete control)
Outline: as §1

[12] = tested on: wheat (Triticum aestivum); experiment: Test A postemergence, wheat; conditions: Postemergence, 0 to 100 scale (0 no effect, 100 complete control)
Outline: as §2

corn (Zea mays) = experiment: Test A postemergence, corn; conditions: Postemergence, 0 to 100 scale (0 no effect, 100 complete control)
Outline: as §1

[13] = tested on: blackgrass (Alopecurus myosuroides); experiment: Test A postemergence, blackgrass; conditions: Postemergence, 0 to 100 scale (0 no effect, 100 complete control)
Outline: as §1

[14] = tested on: galium (catchweed bedstraw, Galium aparine); experiment: Test A postemergence, galium; conditions: Postemergence, 0 to 100 scale (0 no effect, 100 complete control)
Outline: as §2

[15] = 1000 g ai/ha, visual injury, approx. 10 days
[16] = 125 g ai/ha, visual injury approx. 10 days
[17] = 500 g ai/ha, visual injury, approx. 10 days

Cc1cc(C)c(C(=O)N2CCSCC2)cc1NS(=O)(=O)C(F)(F)F [Compound 12]
Plant response rating, Barnyardgrass ([1]; 1000 g ai/ha): 100
Plant response rating, Kochia (kochia (Bassia scoparia) [2]; 1000 g ai/ha): 90
Plant response rating, Ryegrass, Italian ([3]; 1000 g ai/ha): 100
Plant response rating, Foxtail, Giant ([4]; 1000 g ai/ha): 100
Plant response rating, Pigweed ([5]; 1000 g ai/ha): 100
Plant response rating, Barnyardgrass [6, 15]: 80
Plant response rating, Kochia (kochia (Bassia scoparia) [7]; [15]): 70
Plant response rating, Ragweed [8, 15]: 60
Plant response rating, Ryegrass, Italian [9, 15]: 90
Plant response rating, Foxtail, Giant [10, 15]: 90
Plant response rating, Pigweed [11, 15]: 80
Plant response rating, Wheat [12, 15]: 60
Plant response rating, Corn (corn (Zea mays); [15]): 20
Plant response rating, Blackgrass [13, 15]: 30
Plant response rating, Galium [14, 15]: 90

Cc1cc(C2CC2)c(NS(=O)(=O)C(F)(F)F)cc1C(=O)N1CCOCC1 [Compound 13]
Barnyardgrass plant response rating [1]: 60
Plant response rating, Barnyardgrass ([1]; 500 g ai/ha): 100
Kochia plant response rating (kochia (Bassia scoparia) [2]): 20
Plant response rating, Kochia (kochia (Bassia scoparia) [2]; 500 g ai/ha): 50
Ryegrass, Italian plant response rating [3]: 20
Plant response rating, Ryegrass, Italian ([3]; 500 g ai/ha): 30
Foxtail, Giant plant response rating [4]: 0
Plant response rating, Foxtail, Giant ([4]; 500 g ai/ha): 10
Pigweed plant response rating [5]: 20
Plant response rating, Pigweed ([5]; 500 g ai/ha): 60
Plant response rating, Barnyardgrass [6, 16]: 0
Plant response rating, Barnyardgrass [6, 17]: 40
Plant response rating, Kochia (kochia (Bassia scoparia) [7]; [16]): 0
Plant response rating, Kochia (kochia (Bassia scoparia) [7]; [17]): 10
Plant response rating, Ragweed [8, 16]: 10
Plant response rating, Ragweed [8, 17]: 30
Plant response rating, Ryegrass, Italian [9, 16]: 0
Plant response rating, Ryegrass, Italian [9, 17]: 0
Plant response rating, Foxtail, Giant [10, 16]: 0
Plant response rating, Foxtail, Giant [10, 17]: 10
Plant response rating, Pigweed [11, 16]: 0
Plant response rating, Pigweed [11, 17]: 20
Plant response rating, Wheat [12, 16]: 0
Plant response rating, Wheat [12, 17]: 0
Plant response rating, Corn (corn (Zea mays); [16]): 0
Plant response rating, Corn (corn (Zea mays); [17]): 0
Plant response rating, Blackgrass [13, 16]: 0
Plant response rating, Blackgrass [13, 17]: 0
Plant response rating, Galium [14, 16]: 20
Plant response rating, Galium [14, 17]: 30

Cc1ccc(C(=O)N2CCC(C(F)(F)F)CC2)cc1NS(=O)(=O)C(F)(F)F [Compound 263]
Plant response rating, Barnyardgrass ([1]; 1000 g ai/ha): 30
Plant response rating, Kochia (kochia (Bassia scoparia) [2]; 1000 g ai/ha): 20
Plant response rating, Ryegrass, Italian ([3]; 1000 g ai/ha): 50
Plant response rating, Foxtail, Giant ([4]; 1000 g ai/ha): 70
Plant response rating, Pigweed ([5]; 1000 g ai/ha): 60
Plant response rating, Barnyardgrass [6, 15]: 30
Plant response rating, Kochia (kochia (Bassia scoparia) [7]; [15]): 10
Plant response rating, Ragweed [8, 15]: 0
Plant response rating, Ryegrass, Italian [9, 15]: 80
Plant response rating, Foxtail, Giant [10, 15]: 0
Plant response rating, Pigweed [11, 15]: 0
Plant response rating, Wheat [12, 15]: 0
Plant response rating, Corn (corn (Zea mays); [15]): 20
Plant response rating, Blackgrass [13, 15]: 20
Plant response rating, Galium [14, 15]: 60

Cc1cc(Cl)c(NS(=O)(=O)C(F)(F)F)cc1C(=O)N(C)C [Compound 23]
Barnyardgrass plant response rating [1]: 90
Plant response rating, Barnyardgrass ([1]; 500 g ai/ha): 100
Kochia plant response rating (kochia (Bassia scoparia) [2]): 80
Plant response rating, Kochia (kochia (Bassia scoparia) [2]; 500 g ai/ha): 80
Ryegrass, Italian plant response rating [3]: 40
Plant response rating, Ryegrass, Italian ([3]; 500 g ai/ha): 100
Foxtail, Giant plant response rating [4]: 70
Plant response rating, Foxtail, Giant ([4]; 500 g ai/ha): 100
Pigweed plant response rating [5]: 80
Plant response rating, Pigweed ([5]; 500 g ai/ha): 100
Plant response rating, Barnyardgrass [6, 16]: 50
Plant response rating, Barnyardgrass [6, 17]: 70
Plant response rating, Kochia (kochia (Bassia scoparia) [7]; [16]): 40
Plant response rating, Kochia (kochia (Bassia scoparia) [7]; [17]): 70
Plant response rating, Ragweed [8, 16]: 80
Plant response rating, Ragweed [8, 17]: 80
Plant response rating, Ryegrass, Italian [9, 16]: 30
Plant response rating, Ryegrass, Italian [9, 17]: 80
Plant response rating, Foxtail, Giant [10, 16]: 50
Plant response rating, Foxtail, Giant [10, 17]: 90
Plant response rating, Pigweed [11, 16]: 70
Plant response rating, Pigweed [11, 17]: 80
Plant response rating, Wheat [12, 16]: 50
Plant response rating, Wheat [12, 17]: 70
Plant response rating, Corn (corn (Zea mays); [16]): 20
Plant response rating, Corn (corn (Zea mays); [17]): 70
Plant response rating, Blackgrass [13, 16]: 30
Plant response rating, Blackgrass [13, 17]: 30
Plant response rating, Galium [14, 16]: 80
Plant response rating, Galium [14, 17]: 90

— patent publication US20230278972A1, “SUBSTITUTED HALOALKYL SULFONANILIDE HERBICIDES” (FMC Corporation, priority 2020, published 2023)
